Source: patent US10919896B2, “Preparation and uses of pyrimidinone derivatives” (Cancer Research Technology Limited, priority 2016, dated 2021)

Assays:
Cdc7/ASK = Cdc7/ASK (Homo sapiens, UniProt O00311); experiment: Cdc7 Biochemical Assay Method 2: 384 well mobility shift assay (EZ Reader II), MCM2 peptide substrate; design: purchased; conditions: 12.5 μM ATP, read-out: Biochemical Method 2 (pIC50) (converted)
Method: This protocol describes a method for assaying Cdc7/ASK for activity. The assay is a 384 well mobility shift assay (MSA) run on the EZ Reader II microfluidics plate reader (Caliper LifeSciences), utilising a peptide substrate based on the MCM2 sequence. The assay technology is based on the change in mobility between the peptide substrate and the phosphorylated product. A 10 nL volume of the reaction mixture is sipped onto the microfluidic chip where the substrate and product are separated by electrophoresis and detected via laser-induced fluorescence (488 nm LED). The reaction can be monitored in real-time for kinetic experiments or as an end-point for IC50 determinations. The % conversion of substrate is calculated from peak heights of product (P) and substrate (S) peptides (% conversion=P/(P+S)*100).
• 10× Assay Buffer: 200 mM HEPES pH 8, 100 mM MgCl2, 0.1% v/v Triton X-100 and 15 mM DTT. Prepare fresh buffer from 1 M HEPES pH 8, 1 M MgCl2, 1 M DTT and 10% Triton x-100 stocks for each experiment. • Cdc7/ASK is purchased from commercial suppliers and used in the assay at a final assay concentration of 0.847 ng/μL or 9.2 nM. • MCM2 peptide is purchased from commercial suppliers and used in the assay at a final assay concentration of 2.5 μM. • ATP used in the assay at a final assay concentration of 12.5 μM. Methods • 1. Prepare intermediate (daughter) compound plate by transferring 2 μL of compound from the mother plate to 18 μL of 33.3% DMSO in a clear polypropylene plate. • 2. Dry-spot 1 μL of compound from the intermediate compound plate to empty assay plate. • 3. Add 5 μL of 1.694 ng/μL CDC7/ASK working solution to ‘test’ and ‘control’ wells or […] of 2× Assay Buffer to ‘blank’ wells. • 4. Add 4 μL 2.5 μM peptide/12.5 μM ATP working solution to all wells. • 5. Incubate at 37° C. for 1 hour then remove from the incubator and leave for a further 1 hour at room temperature. • 6. Place plate into an EZReader II to read.
Percentage inhibition values were calculated from % of substrate conversion values, using the no compound (DMSO) and no enzyme control values as 0% and 100% inhibition, respectively. IC50 determination was performed with ExcelFit software (IDBS) using curve fit 205. Z′ factors were determined for each plate tested and were all above 0.5.

[1] = tested on: Cdc7 (pS53MCM2 levels in HCT116 cells); experiment: Cdc7 Cell Pharmacodynamics Assay Method 1: pS53MCM2 levels in HCT116 cells, 6 hours; type: cell-based; conditions: Homo sapiens, HCT-116, 6 h, read-out: Biomarker Method 1 (pEC50) (converted)
Procedure, shortened: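 HCT116 cells (wild-type p53), 20,000 per well in McCoys 5A with 10% FCS, treated with compound for 6 h at 37 °C. Lysates captured on total-MCM2 antibody and probed with anti-pMCM2 Ser53 plus HRP secondary; chemiluminescent read-out of pS53MCM2 levels.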

[2] = tested on: Cdc7 (pS40MCM2 levels in HCT116 cells); experiment: Cdc7 Cell Pharmacodynamics Assay Method 2A: pS40MCM2 levels in HCT116 cells, 6 hours; type: cell-based; conditions: Homo sapiens, HCT-116, read-out: Biomarker Method 2A (pEC50) (converted)
Source text: This protocol describes a method to investigate the inhibition of Cdc7 activity by measuring pS40MCM2 levels in cells, after treatment with compounds.
• HCT116 cells (ATCC, #CCL-247) • McCoys 5A with L-glutamine (Cellgro, #10-050-CV) • 10% FCS (Cellgro, #35-010-CV) • D-PBS without CaCl2 and MgCl2 (Cellgro, #21-031-CV) • Trypsin/EDTA (Cellgro, #25-052-CL) • BSA (Calbiochem, 126593) • Cell Extraction Buffer (Invitrogen FNN0011) • Protease inhibitor cocktail (Sigma P-2714) • PMSF 0.3M stock in DMSO (Sigma P7626) • Antibody-rabbit pMCM2 Ser40 (Abcam, AB133243) • Antibody-goat MCM2 (Bethyl #A300-122A) • Antibody-goat Anti Rabbit IgG HRP (Thermo, 31462) • SuperSignal ELISA Pico Chemiluminescent Substrate (Perbio Science UK Ltd 37069) • 10×PBS (Growcells, MRGF-6236) • Triton X100 (Sigma, P-T8787) • DMSO (Fisher, D128-1) • 2-Propanol (J. T. Baker, 9095-03) Method • Seed 1×10^6 HCT116 cells into each of two 175 cm^2 flask containing 30 mL Cell Growth Media and incubate at 37° C., 5% CO2 for 3 days. • Harvest the cells from one T175 cm^2 flask and count. • Dilute with Cell Growth Media to a cell density of 2×10^5. Dispense 100 μL to each well (20,000 HCT116 cells/well) of TC treated 96-well plate(s). • Allow cells to settle overnight in incubator set at 37° C. and 5% CO2. • Cell treatment: Transfer 0.25 μL/well from the compound plate to the wells of the cell plate(s). This is a 1:400 dilution of compound in the assay. • Once all cells are treated place the cells back to the incubator and incubate for either 6 hours (Method 2A) or 18 hours (Method 2B). • Dilute the capture antibody (total MCM2#A300-122A) 1 in 250 in the required volume of PBS (5 mL per assay plate, plus 5 mL for dead volume) and add 50 μL to each well of a Hybond plate except wells A12 & B12. Seal the plate and incubate at room temperature for a minimum of 2 hours. • Defrost aliquot of Invitrogen Cell Extraction Buffer (FNN0011) on ice and supplement with appropriate volume of both Sigma protease inhibitor cocktail (P-2714) and PMSF (final conc 1 mM from a 1 M stock in DMSO). • After the 6 hour or 18 hour cell treatment time, tap out the media from the assay plates and place them in the −70° C. freezer for at least 5 minutes. • Flick out the remaining liquid in the previously prepared capture Ab plate(s) and add 200 μL 2% BSA per well. Incubate for 1 hour at room temperature. • Remove plates from freezer and add 20 μL of ice cold complete lysis buffer. Incubate cells for 30 minutes at 4° C. • Add 30 μL per well 2% BSA • At the end of the 1 hour incubation, wash the Capture/ELISA plate(s) with Wash Buffer on the BioTek plate washer. • Transfer 40 μL per well of the lysis plate(s) to the same wells in the Capture/ELISA plate. Incubate cells overnight at 4° C. • At the end of the overnight incubation, wash the ELISA plate(s) with Wash Buffer on BioTek plate washer. • Prepare Detection Antibody Buffer and dispense 50 μL to all wells of ELISA plate(s) except wells G1 & H1. Cover plate and incubate at room temperature for 2 hours with gentle shaking. • At the end of the 2 hour incubation, wash the ELISA plate(s) with Wash Buffer on the BioTek plate washer. • Prepare the Conjugated Antibody Buffer and dispense 50 μL to all wells of ELISA plate(s). • Cover the plate and incubate at room temperature for 1 hour with gentle shaking. • At the end of the 1 hour incubation, wash the ELISA plate(s) with Wash Buffer on the BioTek plate washer. • Prepare Substrate Buffer and dispense 50 μL to all wells of ELISA plate(s). • Incubate for a minimum of 10 minutes and read plates on the EnVision 2100 Multilabel Reader (Mirror: Luminescence (404) & Luminescence 700 (212); Measurement Height: 6.5 mm; Measurement Time: 0.2 s). Method 3

Cdc7/Dbf4 = Cdc7/Dbf4 (Homo sapiens, UniProt O00311); experiment: Cdc7 Biochemical Assay Method 3: Cdc7/Dbf4 Enzyme TR-FRET Assay measuring pS40MCM2; conditions: 1 μM ATP, read-out: Biochemical Method 3 (pIC50) (converted)
Procedure, shortened: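 2.5 nM Cdc7/Dbf4 incubated with 100 nM biotinylated MCM2-derived peptide and 1 μM ATP, 120 minutes at 25° C. Phospho-S40 detected by TR-FRET using anti-pS40 Mcm2 antibody, terbium anti-rabbit secondary and streptavidin-Alexa Fluor488.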

Chain of Cdc7/ASK (O00311 whole entry): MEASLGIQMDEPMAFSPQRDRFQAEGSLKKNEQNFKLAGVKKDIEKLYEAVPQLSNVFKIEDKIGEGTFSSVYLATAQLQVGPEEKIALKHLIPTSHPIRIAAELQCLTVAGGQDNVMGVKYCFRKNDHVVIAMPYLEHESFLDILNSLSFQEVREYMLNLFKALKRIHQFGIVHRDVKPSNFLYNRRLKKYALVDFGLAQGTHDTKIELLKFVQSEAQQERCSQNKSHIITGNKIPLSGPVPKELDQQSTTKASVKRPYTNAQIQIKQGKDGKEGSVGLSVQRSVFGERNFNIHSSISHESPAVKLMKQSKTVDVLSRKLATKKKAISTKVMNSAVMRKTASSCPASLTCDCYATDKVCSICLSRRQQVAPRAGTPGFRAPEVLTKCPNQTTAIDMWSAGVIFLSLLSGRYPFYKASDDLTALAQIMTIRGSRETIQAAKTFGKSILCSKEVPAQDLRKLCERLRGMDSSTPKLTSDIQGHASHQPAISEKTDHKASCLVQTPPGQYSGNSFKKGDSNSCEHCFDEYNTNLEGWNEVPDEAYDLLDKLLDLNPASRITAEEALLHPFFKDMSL
Chain of Cdc7/ASK (Q9UBU7 whole entry partner): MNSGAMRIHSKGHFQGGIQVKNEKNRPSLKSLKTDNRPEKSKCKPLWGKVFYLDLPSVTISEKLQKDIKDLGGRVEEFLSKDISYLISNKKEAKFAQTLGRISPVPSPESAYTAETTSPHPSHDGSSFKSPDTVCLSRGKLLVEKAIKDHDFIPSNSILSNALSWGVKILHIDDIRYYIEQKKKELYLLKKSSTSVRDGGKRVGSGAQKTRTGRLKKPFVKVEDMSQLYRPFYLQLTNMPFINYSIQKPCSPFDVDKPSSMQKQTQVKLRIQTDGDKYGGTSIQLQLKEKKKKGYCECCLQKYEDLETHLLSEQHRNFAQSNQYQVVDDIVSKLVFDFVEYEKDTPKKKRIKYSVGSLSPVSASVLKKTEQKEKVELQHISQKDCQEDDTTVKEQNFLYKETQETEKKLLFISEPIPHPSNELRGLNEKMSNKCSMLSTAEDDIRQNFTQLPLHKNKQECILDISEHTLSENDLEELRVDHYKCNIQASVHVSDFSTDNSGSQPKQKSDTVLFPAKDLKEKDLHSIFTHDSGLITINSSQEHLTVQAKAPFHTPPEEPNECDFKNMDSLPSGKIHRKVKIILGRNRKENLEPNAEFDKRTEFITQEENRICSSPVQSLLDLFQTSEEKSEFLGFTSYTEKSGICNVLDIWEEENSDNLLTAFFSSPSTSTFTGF
Chain of Cdc7/Dbf4 (O00311 whole entry): as the sequence (O00311 whole entry) above
Chain of Cdc7/Dbf4 (Q9UBU7 whole entry partner): as the sequence (Q9UBU7 whole entry partner) above

| IC50 (Cdc7/ASK) | EC50 [1] | EC50 [2] | IC50 (Cdc7/Dbf4) | SMILES |
| --- | --- | --- | --- | --- |
| 7.08 nM | 263 nM | – | – | C[C@H]1COCCN1c1nc(-c2ccncc2)[nH]c(=O)c1Cl [Compound 365] |
| 9.12 nM | 269 nM | – | – | CC(C)(C)[C@H]1CN(c2nc(-c3ccncc3)[nH]c(=O)c2Br)CCN1 [Compound 410, 5-bromo-4-[(3S)-3-tert-butylpiperazin-1-yl]-2-(4-pyridyl)-1H-pyrimidin-6-one] |
| 12 nM | 1020 nM | – | – | CC(C)[C@H]1CNCCN1c1nc(-c2ccncc2)[nH]c(=O)c1Cl [Compound 370] |
| 2.29 nM | 457 nM | – | – | NC1CCN(c2nc(-c3ccnc(F)c3)[nH]c(=O)c2Cl)CC1 [Compound 321] |
| 1.51 nM | 63.1 nM | – | – | CC(F)(F)[C@H]1CN(c2nc(-c3ccnc(F)c3)[nH]c(=O)c2Cl)CCN1 [Compound 315] |
| 0.603 nM | 15.5 nM | – | – | CC1CNCCN1c1nc(-c2ccncc2)[nH]c(=O)c1Cl (stereo not shown) [Compound 368] |
| 3.09 nM | 245 nM | – | – | CC[C@@H]1CNCCN1c1nc(-c2ccncc2)[nH]c(=O)c1Cl [Compound 371] |
| 3.72 nM | – | 316 nM | 0.794 nM | N[C@H]1CCN(c2nc(-c3ccnc(F)c3)[nH]c(=O)c2Cl)C1 [Compound 320] |
| 1.38 nM | 42.7 nM | – | – | CC(C)(C)[C@H]1CN(c2nc(-c3ccnc(F)c3)[nH]c(=O)c2Cl)CCN1 [Compound 322] |
